These results are taken from patent US20050202511A1, “AMP-activated protein kinase (AMPK) inhibitor screening assay” (priority 2002, published 2005).

One assay concerns the target T1, AMPK-γ2 CBS1-2 (Lins) (Homo sapiens, UniProt Q9UGJ0, INS350L).
T1 construct: fused on or other part: GST at the N-terminus followed by a hexaglycine spacer (pGEX-KG)
Description: Filter binding assay, GST-CBS domain fusion. The following applies: single-site model. As to the method:
(§1) The present inventors also used site-directed mutagenesis to create four of the mutations in CBS1-2 that cause WPWS, i.e. R302Q, H383R and T400N, and Lins (which inserts a leucine residue in the linker between CBS1 and CBS2).
(§2) Various concentrations of [^14C]-AMP, [γ^32P] […] Reactions were stopped by spotting 10 ìl onto a Millipore MF Filter Membrane disc and rapidly washing under high vacuum with 1 ml of ice-cold TBS. Radioactivity was determined on the filters by scintillation counting. Non-specific binding (which was trivial) was determined by performing the assay with GST as a control, and was subtracted. […] Data were fitted to the binding models given in the text, using GraphPad Prism 3. Estimates of parameters resulting from fits are quoted in the text and Table 1±standard error, and the curves shown in figures are theoretical curves obtained using those estimates.

The next assay deals with T2, AMPK-γ2 CBS1-2 (H383R) (Homo sapiens, UniProt Q9UGJ0, H383R).
T2 construct: the N-terminal pair (CBS1-2, residues 274-410); made in house; host or cells: E. coli BL21 (DE3)
T2 sequence (Q9UGJ0 274-410 H383R): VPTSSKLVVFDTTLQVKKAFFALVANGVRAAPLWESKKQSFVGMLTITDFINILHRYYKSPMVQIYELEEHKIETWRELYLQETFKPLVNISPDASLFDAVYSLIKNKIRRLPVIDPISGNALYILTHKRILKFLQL
As to the kind of experiment: Filter binding assay, GST-CBS domain fusion. The following applies: for Kd: single-site model. The protocol: as §1, §2

The target of a further assay is T3, AMPK-γ2 CBS1-2 (T400N) (Homo sapiens, UniProt Q9UGJ0, T400N).
T3 construct: the N-terminal pair (CBS1-2, residues 274-410); made in house; host or cells: E. coli BL21 (DE3)
T3 sequence (Q9UGJ0 274-410 T400N): as the sequence (Q9UGJ0 274-410 H383R) above, with R110H, T127N counted along it
Description: Filter binding assay, GST-CBS domain fusion. The following applies: for Kd: single-site model. As to the method:
as §1, §2

The next assay has as its target T4, AMPK-γ2 CBS3-4 (WT) (Homo sapiens, UniProt Q9UGJ0).
T4 construct: the C-terminal pair (CBS3-4, residues 430-556); made in house; host or cells: E. coli BL21 (DE3)
As to the kind of experiment: Filter binding assay, GST-CBS domain fusion. The settings on record: single-site model. The text has this:
The boundaries of the CBS domains were taken from the alignments by Bateman. Using a plasmid encoding human γ2 as the template, PCR was used to produce DNAs encoding all four CBS domains (CBS1-4, residues 274-569), the N-terminal pair (CBS1-2, residues 274-410) or the C-terminal pair (CBS3-4, residues 430-556). The PCR primers had been designed to create BamHI and XhoI sites at the ends, and these were used to insert them into a vector that created a fusion protein with glutathione-S-transferase at the N-terminal end followed by a hexaglycine spacer, with the CBS domains at the C-terminus. All three constructs were expressed in E. coli and could be purified on glutathione-Sepharose as soluble proteins of the expected sizes in good yield (CBS1-4, 61 kDa, 5 mg/L of culture; CBS1-2, 43 kDa, 2 mg/L; CBS3-4, 43 kDa, 2 mg/L).
Site-directed mutagenesis was also used to create a point mutation in CBS4 that causes hereditary heart disease (WPWS) (R531G).
Various concentrations of [^14C]-AMP, [γ^32P] […] Reactions were stopped by spotting 10 ìl onto a Millipore MF Filter Membrane disc and rapidly washing under high vacuum with 1 ml of ice-cold TBS. Radioactivity was determined on the filters by scintillation counting. Non-specific binding (which was trivial) was determined by performing the assay with GST as a control, and was subtracted. […]

Another assay deals with T5, IMPDH2 CBS1-2 (WT) (Homo sapiens, UniProt P12268).
T5 construct: DNAs encoding residues 112-232 or the full-length protein (1-514) were amplified; His tag (pHAT20 vector); made in house; host or cells: E. coli
T5 sequence (P12268 112-232): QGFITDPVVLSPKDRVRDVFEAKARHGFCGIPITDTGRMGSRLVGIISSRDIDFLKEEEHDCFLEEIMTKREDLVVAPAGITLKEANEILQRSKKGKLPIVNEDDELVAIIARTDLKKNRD
As to the kind of experiment: Filter binding assay, isolated CBS domain pair. The settings on record: single-site model. The text has this: To examine whether binding of adenine nucleotides is a general function for CBS domains, or is specific to the γ subunits of AMPK, IMP dehydrogenase (IMPDH) was also studied. Retinitis pigmentosa can be caused by an R224P mutation in the second CBS domain of the IMPDH1 isoform (27). However, the IMPDH2 isoform is 84% identical in amino acid sequence with IMPDH1, and the arginine mutated in retinitis pigmentosa is conserved. Because the IMPDH2 isoform is ubiquitously expressed and a suitable cDNA to use as a template for PCR was more readily available, DNA encoding the single pair of CBS domains from human IMPDH2 was cloned, an R224P mutation was created and expressed both the wild type and the mutant as His-tagged proteins in E. coli.
For IMPDH2, DNAs encoding residues 112-232 or the full-length protein (1-514) were amplified using human liver cDNA (Clontech) as template, and cloned into pHAT20 (Clontech) using 5′-AgeI and 3′-KpnI sites added to the primers. For the other constructs, DNAs encoding residues 582-840 of CLC2, or 416-551 of cystathionine â-synthase, were amplified using human liver cDNA as template, and cloned into pGEX-KG as above using 5′-BamHI and 3′-XhoI sites added to the primers. All mutations were created using the Stratagene QuikChange Site-directed Mutagenesis system.
The IMPDH2 constructs were His-tagged and were purified on chelating-Sepharose (Pharmacia) charged with 50 mM CoCl2 according to manufacturer's instructions.
Various concentrations of [^14C]-AMP, [γ^32P] […] Reactions were stopped by spotting 10 ìl onto a Millipore MF Filter Membrane disc and rapidly washing under high vacuum with 1 ml of ice-cold TBS. Radioactivity was determined on the filters by scintillation counting. Non-specific binding (which was trivial) was determined by performing the assay with GST as a control, and was subtracted. […] Data were fitted to the binding models given in the text, using GraphPad Prism 3. […]

The next assay concerns the target T6, AMPK-γ1 CBS1-4 (UniProt P80385).
T6 construct: B0.5; other: two site Hill plot model; h (Hill coefficient); fused on or other part: GST at the N-terminus (pGEX-KG, glycine spacer)
Description: Filter binding assay, GST-CBS domain fusion. Also on record: species or system rat. The following applies: for Kd: two site Hill plot model, read-out: B0.5. The protocol: The construct was expressed in E. coli and could be purified on glutathione-Sepharose as a soluble protein of the expected size (62 kDa) in good yield (3 mg/L of culture).
DNA encoding the CBS1-4 domains of the γ1 isoform was produced using PCR with a rat y1-encoding pcDNA3 plasmid as template. The primers used were: 5′-CGCGGATCCGCGATGGAGACGGTCATTTCTTCA-3′ (sense), 5′-CCGCTCGAGCGGGGGCTTCTTCTCTCCACCTGT-3′ (antisense). The PCR products was sub-cloned into pGEX-KG as above.
as §2

The next assay concerns AMPK. As to the kind of experiment: Activation of AMPK (data not shown). The assay is classed as biochemical. The settings on record: read-out: concentration giving half-maximal activation.
The subject of the next assay is rat liver AMPK. The settings on record: read-out: half-maximal effect (A0.5), cited from earlier work.
The target in the next assay is T7, AMPK-γ2 CBS1-2 construct (Homo sapiens, UniProt Q9UGJ0).
T7 construct: the N-terminal pair (CBS1-2, residues 274-410); made in house; host or cells: E. coli BL21 (DE3)
T7 sequence (Q9UGJ0 274-410): as the sequence (Q9UGJ0 274-410 H383R) above, with R110H counted along it
As to the kind of experiment: Displacement of [14C]AMP by unlabelled MgATP. The assay is classed as binding. The settings on record: high concentrations of MgATP. The protocol: This yielded estimates for KdAMP and KdATP of 51 and 180 iM. These are very close to the estimates obtained by direct binding measurements (53 and 175 iÌ).
as §2
For orientation: In a radioligand displacement assay an active substance lowers the binding of a labelled ligand.

Molecules are shown by their SMILES. “And” between values parts separate entries of the source, which are not always exact repeats. Equal entries are not always repeated. Where two headings read alike, the source gives them in different places.

T4 sequence (Q9UGJ0 430-556): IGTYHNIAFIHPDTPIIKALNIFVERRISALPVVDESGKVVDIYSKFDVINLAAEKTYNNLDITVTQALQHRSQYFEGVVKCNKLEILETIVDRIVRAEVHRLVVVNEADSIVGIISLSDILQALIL
T1 sequence (Q9UGJ0 with tags, fused parts or gaps INS350L): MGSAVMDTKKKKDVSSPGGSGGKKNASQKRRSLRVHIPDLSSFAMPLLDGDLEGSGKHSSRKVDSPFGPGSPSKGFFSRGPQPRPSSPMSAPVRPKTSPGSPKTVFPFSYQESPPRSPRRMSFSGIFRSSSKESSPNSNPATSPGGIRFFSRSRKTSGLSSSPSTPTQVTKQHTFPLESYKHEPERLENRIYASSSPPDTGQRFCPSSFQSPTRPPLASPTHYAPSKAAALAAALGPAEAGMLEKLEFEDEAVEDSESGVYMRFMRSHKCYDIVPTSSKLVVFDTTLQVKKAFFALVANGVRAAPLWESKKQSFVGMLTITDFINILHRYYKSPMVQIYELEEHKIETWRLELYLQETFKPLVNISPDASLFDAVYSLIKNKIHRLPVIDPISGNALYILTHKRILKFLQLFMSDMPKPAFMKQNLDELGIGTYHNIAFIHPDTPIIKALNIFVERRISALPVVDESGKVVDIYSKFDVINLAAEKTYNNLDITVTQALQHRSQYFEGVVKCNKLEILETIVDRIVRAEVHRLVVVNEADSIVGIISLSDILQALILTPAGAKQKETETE

As for `Nc1ncnc2c1ncn2[C@@H]1O[C@H](COP(=O)(O)O)[C@@H](O)[C@H]1O` [AMP, adenosine monophosphate], the Kd on AMPK-γ2 CBS1-2 (Lins) was 63 ± 7 µM; on AMPK-γ2 CBS1-2 (H383R), 1500 ± 210 µM; on AMPK-γ2 CBS1-2 (T400N) it was 556 ± 56 µM; at AMPK-γ2 CBS3-4 (WT), 104 ± 10 µM; at IMPDH2 CBS1-2 (WT), 437 ± 53 µM; at AMPK-γ1 CBS1-4, 20 ± 1 µM. Further, the “increase in Kd relative to wild type” value on AMPK-γ2 CBS1-2 (H383R) is reported as 28 fold; on AMPK-γ2 CBS1-2 (T400N), 10 fold. In addition, at AMPK-γ1 CBS1-4, the “h (Hill coefficient)” value was 1.6±0.1 and 1.6 ± 0.2. Moreover, the EC50 in the assay on AMPK is 4.7 µM; in the assay with rat liver AMPK (assays in 200 μM ATP), 4.4 µM; in the assay with rat liver AMPK (at 4 mM ATP) it was 29 µM.

For the molecule `Nc1ncnc2c1ncn2[C@@H]1O[C@H](COP(=O)(O)OP(=O)(O)OP(=O)(O)O)[C@@H](O)[C@H]1O` [ATP], the Kd was 202 ± 22 µM on AMPK-γ2 CBS1-2 (Lins); 1570 ± 140 µM on AMPK-γ2 CBS1-2 (H383R); 952 ± 55 µM on AMPK-γ2 CBS1-2 (T400N); 403 ± 16 µM on AMPK-γ2 CBS3-4 (WT); 54 µM on IMPDH2 CBS1-2 (WT); 119 ± 7 µM on AMPK-γ1 CBS1-4. Moreover, at AMPK-γ2 CBS1-2 construct, the “displacement of [14C]AMP binding” value was “completely displaced”. In addition, at AMPK-γ1 CBS1-4, the “h (Hill coefficient)” value was 1.9 ± 0.2.
